According to US20140329177A1, “CYCLIC COMPOUND, METHOD FOR PRODUCING SAME, RADIATION-SENSITIVE COMPOSITION, AND RESIST PATTERN FORMATION METHOD” (MITSUBISHI GAS CHEMICAL COMPANY, INC., priority 2011, published 2014):

Assay: Solubility test of compound in safe solvent
Format: physicochemical
Conditions: 23° C.; for dissolution amount in CHN: cyclohexanone (CHN); for dissolution amount in PGME: propylene glycol monomethyl ether (PGME)
Protocol: The dissolution amounts of compounds obtained in the above synthesis examples 1 to 4 and syntheses 1 and 2 in propylene glycol monomethyl ether (PGME) and cyclohexanone (CHN) were evaluated as follows.
A: 5.0% by mass≦dissolution amount B: 3.0% by mass≦dissolution amount<5.0% by mass C: dissolution amount<3.0% by mass
dissolution amount (% by mass)=mass (g) of compound dissolved in 100 g of solvent of 23° C./(100 g of mass of solvent+mass (g) of compound dissolved in 100 g of solvent of 23° C.)×100

CC(C)c1ccc(C2c3cc(c(O)cc3O)C(c3ccc(C(C)C)cc3)c3cc(c(O)cc3O)C(c3ccc(C(C)C)cc3)c3cc(c(O)cc3O)C(c3ccc(C(C)C)cc3)c3cc2c(O)cc3O)cc1 (stereo not shown) [CR-1A]
dissolution amount in CHN: C (dissolution amount<3.0% by mass)
dissolution amount in PGME: B (3.0% by mass≦dissolution amount<5.0% by mass)

Oc1cc(O)c2cc1C(c1ccc(C3CCCCC3)cc1)c1cc(c(O)cc1O)C(c1ccc(C3CCCCC3)cc1)c1cc(c(O)cc1O)C(c1ccc(C3CCCCC3)cc1)c1cc(c(O)cc1O)C2c1ccc(C2CCCCC2)cc1 (stereo not shown) [CR-2A]
dissolution amount in CHN: B (3.0% by mass≦dissolution amount<5.0% by mass)
dissolution amount in PGME: B (3.0% by mass≦dissolution amount<5.0% by mass)
